Data reported in US6894185B2, “Substituted chiral allosteric hemoglobin modifiers” (Allós Therapeutics, Inc., priority 1999, dated 2005).
“And” between values parts separate entries of the source, which are not always exact repeats. Equal entries are not always repeated.

Legend:
[1] = target: T1, hemoglobin (Homo sapiens, UniProt P68871+P69905); test: In vitro whole blood studies (multi-point tonometry and blood gas analysis); type: cell-based; settings: for ΔP50 ± S.D. (P50 effector − P50control) / P50e (P50 value in the presence of the effector): Table VI, 2.5 mM Hb, 5.0 mM effector; for P50e (P50 value in the presence of the effector): single runs, DMSO stock
T1 construct: The whole blood samples were collected in heparinized tubes from healthy volunteers; from tissue; host or cells: human whole blood (heparinized) from healthy volunteers
T1 sequence (P69905 2-142 limits assumed): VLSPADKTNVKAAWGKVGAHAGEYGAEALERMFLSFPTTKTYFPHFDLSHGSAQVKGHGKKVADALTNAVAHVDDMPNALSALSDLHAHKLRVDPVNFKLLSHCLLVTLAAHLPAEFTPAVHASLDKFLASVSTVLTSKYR
T1 sequence (P68871 2-147 limits assumed): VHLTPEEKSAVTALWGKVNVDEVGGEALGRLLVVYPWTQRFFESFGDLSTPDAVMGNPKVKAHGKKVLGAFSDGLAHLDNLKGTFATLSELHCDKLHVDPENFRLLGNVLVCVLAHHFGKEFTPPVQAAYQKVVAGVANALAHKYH
Description: (§1) Structure-allosteric activity relationships were determined from the synthetic chiral effectors comparing the shift in the oxygen binding curve of Hb solutions using a Hemox-Analyzer. In vitro biological activity testing in the presence of plasma proteins was also performed on selected enantiomers and racemates (multi-point tonometry and blood gas analysis) to screen for candidates with potential clinical use. SAR studies compared the degree in shift in P50 values, i.e., the partial pressure of molecular oxygen necessary to half-saturate hemoglobin. An effector that decreases Hb oxygen affinity increases the P50 value relative to the control. Thus, the activity or potency of each analog could be expressed by the ratio P50 (effector)/P50(control). Tables and II and III summarize the p50 values obtained using human whole blood, while Tables IV and V summarize the P50 and the Hill coefficient values (n50) at half-saturation obtained using Hemox-analyzer. The slope of the log of the oxygen binding curves is known as the Hill coefficient. The Hill coefficient measures the degree of cooperativity in binding for an allosteric protein, the normal range for human blood is 2.7-3.2. Table VI presents the results from the whole blood studies given as a ΔP50 and Hill coefficient (n50) values for the enantiomers and racemates.
The whole blood samples were collected in heparinized tubes from healthy volunteers and stored over ice. The sodium salts of the compounds were prepared as described earlier. A 200 mM stock solution of the effector was prepared in DMSO. A 5.0 mM test solution was prepared from 50 μL of the 200 mM test solution and 1950 μL of whole blood. The blood samples were incubated in IL 237 tonometers (Instrumentation Laboratories, Inc. Lexington, Mass.) for approximately 10-12 min at 37° C. and equilibrated at three separate concentrations of O2 (20%, 40%, and 60%). After equilibration at each concentration of O2, a sample was removed via syringe and aspirated into a IL 1420 Automated Blood Gas Analyzer (Instrumentation Laboratories, Inc. Lexington, Mass.) and a IL 482 and IL 682 Co-oximeter (Instrumentation Laboratories, Inc. Lexington, Mass.) to determine the pH, pCO2, pO2 and the hemoglobin oxygen saturation values (sO2), respectively. The measured values for pO2 and sO2 at each oxygen saturation level were then subjected to a non-linear regression analysis using the program Scientist (Micromath, Salt Lake City, Utah) to calculate the P50 and Hill coefficient values.

[2] = target: T2, purified stripped human adult hemoglobin (Homo sapiens, UniProt P68871+P69905); test: Hemoglobin solution oxygen equilibrium studies (HEMOX-analyzer); type: biochemical; settings: Table IV, 0.5 mM effector, pH 7.2; for n50 (Hill coefficient at 50% saturation): n50 control 2.7; for P50e/P50c: ratio to P50 control with no effector (5.0 mmHg)
T2 construct: using purified stripped human adult hemoglobin as described previously; from tissue
T2 sequence (P69905 2-142 limits assumed): as the sequence (P69905 2-142 limits assumed) above
T2 sequence (P68871 2-147 limits assumed): as the sequence (P68871 2-147 limits assumed) above
Description: as §1, with “Tables and II and III summarize the p50 values obtained using human whole blood, while Tables IV and V summarize the P50 and the Hill coefficient values (n50) at half-saturation obtained using Hemox-analyzer.” left out, “2.7-3.2.” for “2.7-3.2. Table VI presents the results from the whole blood studies given as a ΔP50 and Hill coefficient (n50) values for the enantiomers and racemates.”
The effectors were prepared as 10 mM stock solutions in 100 mM NaCl bis-Tris buffer, pH 7.2. After the addition of an excess of NaHCO3, the solution was warmed to 60° C. and stirred for several hours. The solutions were back titrated carefully to pH 7.2 at 25° C. prior to use. Oxygen equilibrium measurements were performed with the HEMOX-analyzer (TCS Medical products, Southampton, Pa.) using purified stripped human adult hemoglobin as described previously. 4 mL of buffer, 100 mM NaCl, 50 mM bis-Tris at pH 7.2, is added to a cuvette in the HEMOX, followed by 200 μL of the 10 mM effector stock solution. Hemoglobin is then added to achieve a final Hb concentration of […] on heme basis. Catalase (20 μg/mL) and 50 mM EDTA were added to limit oxidation of the hemes. […] The saturation of hemoglobin was determined spectrophotometrically with a dual wavelength spectrophotometer (577 nm and 586.2 nm). The solution was stirred constantly during the 45-60 min recordings. The P50 and n50 values were calculated by linear regression analysis from data points comprised between 40 and 60% oxygen saturation.

[3] = target: T2, purified stripped human adult hemoglobin; test: as above; type: biochemical; settings: Table IV; 0.5 mM effector, 100 mM bis-Tris buffer, pH 7.2

SMILES	melting point [°C]	Whole Blood Δp50 mm Hg ([1]; Table III) [mm Hg]	other results
Cc1cc(Cl)cc(NC(=O)Cc2ccc(OC3(C(=O)O)CCC(C)C3)cc2)c1 (centres unmarked) [Compound 9, 1-[4-[[(3-chloro-5-methylanilino)carbonyl]methyl]phenoxy]-3-methylcyclopentane carboxylic acid]	–	–	Whole Blood Δp50 mm Hg ([1]; Table II): 15 mm Hg; n50 (Hill coefficient at 50% saturation) [2]: 2.4; P50e/P50c [2]: 2.8; P50e (oxygen pressure at which Hb is 50% saturated with oxygen in the presence of the effector) [3]: 14 mmHg
COCC(C)(Oc1ccc(CC(=O)Nc2cc(C)cc(C)c2)cc1)C(=O)O (centres unmarked) [Compound 10, 2-[4-[[(3,5-dimethylanilino)carbonyl]methyl]phenoxy]-3-methoxy-2-methylpropanoic acid]	–	–	Whole Blood Δp50 mm Hg ([1]; Table II): 24 mm Hg; n50 (Hill coefficient at 50% saturation) [2]: 2.4; P50e/P50c [2]: 1.7; P50e (oxygen pressure at which Hb is 50% saturated with oxygen in the presence of the effector) [3]: 8.4 mmHg
Cc1cc(C)cc(NC(=O)Cc2ccc(OC3(C(=O)O)CCCC(C)C3)cc2)c1 (centres unmarked) [Compound 11, 1-[4-[[(3,5-dimethylanilino)carbonyl]methyl]phenoxy]-3-methylcyclohexane carboxylic acid]	–	–	Whole Blood Δp50 mm Hg ([1]; Table II): 16 mm Hg; n50 (Hill coefficient at 50% saturation) [2]: 2.5; P50e/P50c [2]: 2.1; P50e (oxygen pressure at which Hb is 50% saturated with oxygen in the presence of the effector) [3]: 10 mmHg
Cc1cc(C)cc(NC(=O)Cc2ccc(OC3(C(=O)N[C@@H](C)C(=O)O)CCCC3)cc2)c1 [Compound 39, 1-[4-(((3,5-dimethylanilino)carbonyl)methyl)phenoxy] cyclopentanecarbonyl-L-alanine]	117 to 118	22	–
Cc1cc(C)cc(NC(=O)Cc2ccc(OC3(C(=O)N[C@H](CC(C)C)C(=O)O)CCCC3)cc2)c1 [Compound 40, 1-[4-(((3,5-dimethylanilino)carbonyl)methyl)phenoxy]cyclopentanecarbonyl-D-leucine]	119 to 120	40	–
Cc1cc(C)cc(NC(=O)Cc2ccc(OC3(C(=O)N[C@@H](CC(C)C)C(=O)O)CCCC3)cc2)c1 [Compound 41, 1-[4-(((3,5-dimethylanilino)carbonyl)methyl)phenoxy]cyclopentanecarbonyl-L-leucine]	119 to 120	15	–
Cc1cc(C)cc(NC(=O)Cc2ccc(OC3(C(=O)N[C@H](C(=O)O)C(C)C)CCCC3)cc2)c1 [Compound 43, 1-[4-(((3,5-dimethylanilino)carbonyl)methyl)phenoxy]cyclopentanecarbonyl-L-valine]	104 to 106	30	–
Cc1cc(C)cc(NC(=O)Cc2ccc(OC3(C(=O)N[C@H](Cc4ccccc4)C(=O)O)CCCC3)cc2)c1 [Compound 44, 1-[4-(((3,5-dimethylanilino)carbonyl)methyl)phenoxy]cyclopentanecarbonyl-D-phenylalanine]	106 to 108	38	–
Cc1cc(C)cc(NC(=O)Cc2ccc(OC3(C(=O)N[C@H](Cc4c[nH]c5ccccc45)C(=O)O)CCCC3)cc2)c1 [Compound 46, 1-[4-(((3,5-dimethylanilino)carbonyl)methyl)phenoxy]cyclopentanecarbonyl-D-tryptophan]	83 to 84	20	–
Cc1cc(C)cc(NC(=O)Cc2ccc(OC3(C(=O)N[C@H](CO)C(=O)O)CCCC3)cc2)c1 [Compound 49, 1-[4-(((3,5-dimethylanilino)carbonyl)methyl)phenoxy]cyclopentanecarbonyl-D-serine]	58 to 59	16	–
Cc1cc(C)cc(NC(=O)Cc2ccc(OC3(C(=O)N[C@@H](CO)C(=O)O)CCCC3)cc2)c1 [Compound 50, 1-[4-(((3,5-dimethylanilino)carbonyl)methyl)phenoxy]cyclopentanecarbonyl-L-serine]	58 to 59	5	–
Cc1cc(C)cc(NC(=O)Cc2ccc(OC3(C(=O)O)CCCC3)cc2)c1 [JP7, 1-[4-(((3,5-dimethylanilino)carbonyl)methyl)phenoxy]cyclopentanecarboxylic acid, reference compound]	–	–	ΔP50 ± S.D. (P50 effector − P50control) [1]: 42.3 ± 4.9 mmHg; P50e (P50 value in the presence of the effector) [1]: 74.7 mmHg and 67.7 mmHg; n50 (Hill coefficient at 50% saturation) [2]: 2.4; P50e/P50c [2]: 5.1; P50e (oxygen pressure at which Hb is 50% saturated with oxygen in the presence of the effector) [3]: 26 mmHg
Cc1cc(C)cc(NC(=O)Cc2ccc(OC(C)(C)C(=O)O)cc2)c1 [RSR13, reference compound]	–	–	ΔP50 ± S.D. (P50 effector − P50control) [1]: 45.2 ± 2.2 mmHg; P50e (P50 value in the presence of the effector) [1]: 76.5 mmHg and 73.4 mmHg; n50 (Hill coefficient at 50% saturation) [2]: 2.3; P50e/P50c [2]: 4.7; P50e (oxygen pressure at which Hb is 50% saturated with oxygen in the presence of the effector) [3]: 23 mmHg

More lines, main results first:

melting point [°C]	Whole Blood Δp50 mm Hg ([1]; Table III) [mm Hg]	SMILES	other results
54 to 55	27	CSCC[C@@H](NC(=O)C1(Oc2ccc(CC(=O)Nc3cc(C)cc(C)c3)cc2)CCCC1)C(=O)O [Compound 51, 1-[4-(((3,5-dimethylanilino)carbonyl)methyl)phenoxy]cyclopentanecarbonyl-D-methionine]	–
127 to 128	13	CC[C@H](C)[C@H](NC(=O)C1(Oc2ccc(CC(=O)Nc3cc(C)cc(C)c3)cc2)CCCC1)C(=O)O [Compound 53, 1-[4-(((3,5-dimethylanilino)carbonyl)methyl)phenoxy]cyclopentanecarbonyl-L-isoleucine]	–
74 to 75	21	Cc1cc(C)cc(NC(=O)Cc2ccc(OC3(C(=O)N[C@@H](Cc4ccc(O)cc4)C(=O)O)CCCC3)cc2)c1 [Compound 54, 1-[4-(((3,5-dimethylanilino)carbonyl)methyl)phenoxy]cyclopentanecarbonyl-L-tyrosine]	–
71 to 72	17	Cc1cc(C)cc(NC(=O)Cc2ccc(OC3(C(=O)N4CCC[C@H]4C(=O)O)CCCC3)cc2)c1 [Compound 56, 1-[4-(((3,5-dimethylanilino)carbonyl)methyl)phenoxy]cyclopentanecarbonyl-L-proline]	–
64 to 66	13	Cc1cc(C)cc(NC(=O)Cc2ccc(OC3(C(=O)N[C@H](C(=O)O)[C@@H](C)O)CCCC3)cc2)c1 [Compound 58, 1-[4-(((3,5-dimethylanilino)carbonyl)methyl)phenoxy]cyclopentanecarbonyl-L-threonine]	–
124 to 125	−0.6	Cc1cc(C)cc(NC(=O)Cc2ccc(OC3(C(=O)N[C@@H](CCCCN)C(=O)O)CCCC3)cc2)c1 [Compound 62, 1-[4-(((3,5-dimethylanilino)carbonyl)methyl)phenoxy]cyclopentanecarbonyl-L-lysine]	–
